Results on 29 compounds are retold here after ChEMBL document CHEMBL3272306, “Synthesis and antimicrobial activity of some novel heterocycles. Azolo-as-triazines” (1976).

What all share (assay type): functional
For one test, the system named is Escherichia coli. Description: Antibacterial activity against clinical isolate Escherichia coli assessed as prevention of visible growth at 25 degC after 24 hrs by broth dilution assay. Background: Broth dilution looks for growth in wells or tubes with falling amounts of substance.
In the next test the test system is Pseudomonas aeruginosa. Description: Antibacterial activity against clinical isolate Pseudomonas aeruginosa assessed as prevention of visible growth at 25 degC after 24 hrs by broth dilution assay.
The subject of the next test is Staphylococcus aureus. Description: Antibacterial activity against clinical isolate Staphylococcus aureus assessed as prevention of visible growth at 25 degC after 24 hrs by broth dilution assay.
For test [1], the system named is Trichophyton mentagrophytes. Description: Antifungal activity against clinical isolate Trichophyton mentagrophytes assessed as prevention of visible growth at 30 degC after 48 hrs by broth dilution assay.
For a further test, the system named is Candida albicans. Description: Antifungal activity against clinical isolate Candida albicans assessed as prevention of visible growth at 25 degC after 24 hrs by broth dilution assay.

In brackets after ≈: the same amount, converted by molar mass.

For orientation: MIC means the lowest concentration found to suppress growth. Regarding `CCOC(=O)c1nnc2ccnn2c1N`, the minimum inhibitory concentration (MIC) with Escherichia coli is greater than 400 µM; in the test with Pseudomonas aeruginosa it was 160 µM (≈ 33.2 µg/mL).

As to `CCCC(=O)c1nnc2c(C(N)=O)nnn2c1CCC`, the MIC is greater than 400 µM with Escherichia coli and 400 µM (≈ 111 µg/mL) in the test on Staphylococcus aureus.

With `CC(=O)c1nnc2ccnn2c1C`, the minimum inhibitory concentration (MIC) (with Escherichia coli; in test [1]; in the test with Staphylococcus aureus; in the test on Candida albicans; with Pseudomonas aeruginosa) was greater than 400 µM in each case.

As to `CCCC(=O)c1nnc2c(-c3ccc(Cl)cc3)cnn2c1CCC`, the figures for the minimal inhibitory concentration (MIC) in the test on Escherichia coli and in the test on Pseudomonas aeruginosa were greater than 400 µM and 400 µM (≈ 137 µg/mL), respectively.

In the case of `CCCC(=O)c1nnc2c(C(=O)OCC)cnn2c1CCC`, the minimum inhibitory concentration (MIC) with Escherichia coli is greater than 400 µM; in the test on Candida albicans, 400 µM (≈ 122 µg/mL).

On to `CCCC(=O)c1nnc2c(C(N)=O)cnn2c1CCC`, for which the MIC (in the test with Escherichia coli; in test [1]; in the test on Staphylococcus aureus; in the test on Candida albicans; in the test on Pseudomonas aeruginosa) was greater than 400 µM each time.

Regarding `CCC(=O)c1nnc2c(C(N)=O)cnn2c1CC`, the MIC (in the test with Escherichia coli; in test [1]; with Staphylococcus aureus; in the test with Candida albicans; in the test on Pseudomonas aeruginosa) was greater than 400 µM throughout.

On to `CCC(=O)c1nnc2ccnn2c1CC`, for which the MIC (in the test on Escherichia coli; in test [1]; with Staphylococcus aureus; with Candida albicans; in the test on Pseudomonas aeruginosa) was greater than 400 µM throughout.

As for `CCC(=O)c1nnc2c(Br)cnn2c1CC`, the MIC with Escherichia coli was greater than 400 µM; in test [1], 160 µM (≈ 45.3 µg/mL).

For the compound `CCC(=O)c1nnc2cc(-c3ccc(OC)cc3)nn2c1CC`, the MIC (in the test on Escherichia coli; in test [1]; in the test on Staphylococcus aureus; with Candida albicans; in the test on Pseudomonas aeruginosa) was greater than 400 µM each time.

As for `N#Cc1nnc2ccnn2c1N`, the MIC (in the test with Escherichia coli; in test [1]; in the test on Staphylococcus aureus; in the test on Candida albicans; with Pseudomonas aeruginosa) was greater than 400 µM throughout.

Regarding `CCCc1c(C(=O)OCC)nnc2ccnn12`, the MIC (in the test on Escherichia coli; in test [1]; in the test with Staphylococcus aureus; with Candida albicans; in the test on Pseudomonas aeruginosa) was greater than 400 µM throughout.

For `CCCc1cnnc2ccnn12`, the minimal inhibitory concentration (MIC) (in the test with Escherichia coli; in test [1]; in the test on Staphylococcus aureus; with Candida albicans; in the test on Pseudomonas aeruginosa) was greater than 400 µM each time.

`Cc1nnc2ccnn2c1C`: the MIC (with Escherichia coli; in test [1]; with Staphylococcus aureus; in the test on Candida albicans; in the test with Pseudomonas aeruginosa) was greater than 400 µM each time.

Consider `CCCc1cnnc2c(Br)cnn12`, for which the MIC (with Escherichia coli; in test [1]; in the test on Staphylococcus aureus; in the test with Candida albicans; in the test on Pseudomonas aeruginosa) was greater than 400 µM throughout.

Regarding `Cc1cnnc2ccnn12`, the minimal inhibitory concentration (MIC) (with Escherichia coli; in test [1]; in the test with Staphylococcus aureus; in the test on Candida albicans; in the test with Pseudomonas aeruginosa) was greater than 400 µM each time.

`Cc1cnnc2c(Br)cnn12`: the minimal inhibitory concentration (MIC) (in the test on Escherichia coli; in test [1]; with Staphylococcus aureus; in the test on Candida albicans; in the test on Pseudomonas aeruginosa) was greater than 400 µM in each case.

On to `Cc1nnc2c(Br)cnn2c1C`, for which the MIC (in the test on Escherichia coli; in test [1]; in the test with Staphylococcus aureus; in the test with Candida albicans; in the test on Pseudomonas aeruginosa) was greater than 400 µM each time.

`CCCC(=O)c1nnc2nc(SCc3ccccc3)nn2c1CCC`: the MIC with Escherichia coli is greater than 400 µM; with Staphylococcus aureus it was 400 µM (≈ 142 µg/mL).

For the compound `CCCC(=O)c1nnc2nc(S(=O)(=O)Cc3ccccc3)nn2c1CCC`, the minimum inhibitory concentration (MIC) (in the test on Escherichia coli; in test [1]; with Staphylococcus aureus; with Candida albicans; with Pseudomonas aeruginosa) was greater than 400 µM in each case.

Turning to `CCCC(=O)c1nnc2ncnn2c1CCC`, the MIC (in the test with Escherichia coli; in test [1]; in the test on Staphylococcus aureus; in the test on Candida albicans; with Pseudomonas aeruginosa) was greater than 400 µM in each case.

As to `CCCC(=O)c1nnc2nc(NC)nn2c1CCC`, the minimal inhibitory concentration (MIC) (with Escherichia coli; in test [1]; in the test with Staphylococcus aureus; in the test on Candida albicans; with Pseudomonas aeruginosa) was greater than 400 µM each time.

With `CCOC(=O)c1nnc2nccn2c1N`, the minimal inhibitory concentration (MIC) (in the test with Escherichia coli; in test [1]; with Staphylococcus aureus; in the test with Candida albicans; in the test on Pseudomonas aeruginosa) was greater than 400 µM throughout.

Consider `CCCC(=O)c1nnc2nccn2c1CCC`, for which the minimal inhibitory concentration (MIC) (in the test on Escherichia coli; in test [1]; in the test with Staphylococcus aureus; in the test on Candida albicans; in the test with Pseudomonas aeruginosa) was greater than 400 µM in each case.

With `CCC(=O)c1nnc2nccn2c1CC`, the MIC (in the test with Escherichia coli; in test [1]; in the test with Staphylococcus aureus; in the test on Candida albicans; with Pseudomonas aeruginosa) was greater than 400 µM throughout.

Consider `Cc1nnc2nccn2c1C`, for which the MIC (in the test on Escherichia coli; in test [1]; with Staphylococcus aureus; with Candida albicans; in the test with Pseudomonas aeruginosa) was greater than 400 µM in each case.

Take `CCCC(=O)c1nnc2c(C(N)=O)ncn2c1CCC`: the minimal inhibitory concentration (MIC) (in the test with Escherichia coli; in test [1]; in the test on Staphylococcus aureus; with Candida albicans; in the test with Pseudomonas aeruginosa) was greater than 400 µM in each case.

Turning to `CCC(=O)c1nnc2c(C(N)=O)ncn2c1CC`, the MIC (with Escherichia coli; in test [1]; in the test with Staphylococcus aureus; with Candida albicans; in the test on Pseudomonas aeruginosa) was greater than 400 µM throughout.

In the case of `CC(=O)c1nnc2c(C(N)=O)ncn2c1C`, the minimal inhibitory concentration (MIC) (with Escherichia coli; in test [1]; in the test with Staphylococcus aureus; in the test on Candida albicans; in the test on Pseudomonas aeruginosa) was greater than 400 µM each time.
